Reference: US20080114047A1 (priority 2003, published 2008)
Several values for one entry are separate records, joined by “and”; a condition that tells them apart may be missing. Equal entries are not always repeated. Where two headings read alike, the source gives them in different places.

Key:
Plasmodium falciparum = experiment: Anti-protozoan data: P. falcip. IC50; assay type: cell-based; conditions: read-out: P. falcip. IC50
[1] = test system: L. donovani axenic amastigotes; experiment: In vitro anti-leishmania activity (IC50 vs. L. donovani axenic amastigotes); assay type: cell-based; conditions: Leishmania donovani
[2] = test system: Trypanosoma brucei rhodesiense; experiment: Anti-protozoan data: T.b.r. IC50; assay type: cell-based; conditions: read-out: T.b.r. IC50
Trypanosoma cruzi = experiment: Anti-protozoan data: T. cruzi IC50; assay type: cell-based; conditions: read-out: T. cruzi IC50
Aspergillus fumigatus = experiment: Anti-fungal data: Aspergillus fumigatus; assay type: cell-based
Candida albicans = experiment: Anti-fungal data: Candida albicans; assay type: cell-based
[3] = test system: Mycobacterium tuberculosis; experiment: Compounds tested against Mycobacterium tuberculosis (MIC90); assay type: cell-based; conditions: Table VII(b), read-out: M. tb MIC90
[4] = Tables VI(a), VI(c), read-out: Leishmania donovani IC50
[5] = axenic amastigotes, Tables I-V, read-out: IC50 vs. L. donovani

Cl.Cl.c1cc(C2=NCCN2)ccc1OCCCCOc1ccc(-c2cc3ccc(C4=NCCN4)cc3o2)cc1 [Compound 73, 2-(2-(4-(4-(4-(4,5-Dihydro-1H-imidazol-2-yl)phenoxy)butoxy)phenyl)benzofuran-6-yl)-4,5-dihydro-1H-imidazole dihydrochloride]
IC50 (Plasmodium falciparum; Tables VI(a), VI(c)): 0.0461 µM
IC50 (in vitro): 16.9 µM
IC50 [1, 4]: 13.2 ± 0.86 µM
IC50 [1, 5]: 13.2 ± 0.86 µM
IC50 ([2]; Tables VI(a), VI(c)): 0.942 µM
melting point: 306 to 307 °C
IC50 (Trypanosoma cruzi; Tables VI(a), VI(c)): 9.82 µM

CONC(=N)c1ccc2oc(CCCCc3cc4cc(C(=N)NOC)ccc4o3)cc2c1 [Compound 189, 2-(4-(5-(N-Methoxycarbamimidoyl)benzofuran-2-yl)butyl)-N-methoxybenzofuran-5-carboxamidine]
IC50 (Plasmodium falciparum; Tables VI(a), VI(c)): ~2 µM
IC50 (in vitro): 74.3 µM
IC50 [1, 4]: > 100 µM
IC50 ([2]; Tables VI(a), VI(c)): 6.87 µM
IC50 (Trypanosoma cruzi; Tables VI(a), VI(c)): 61.9 µM

CC(C)NC(=N)c1ccc(-c2cc3cc(C(=N)NC(C)C)ccc3o2)cc1 [Compound 164, 2-(4-(N-isopropylcarbamimidoyl)phenyl)-N-isopropylbenzofuran-5-carboxamidine]
IC50 (Plasmodium falciparum): 0.073 µM
IC50 (in vitro): > 198 µM
IC50 ([1]; read-out: L. Donovani IC50): 1.58 ± 1.09 µM
IC50 [2]: 0.125 µM
IC50 (Trypanosoma cruzi): > 198 µM

Cl.Cl.c1cc(C2=NCCN2)ccc1OCCCOc1ccc(-c2cc3cc(C4=NCCN4)ccc3o2)cc1 [Compound 46, 2-(2-(4-(3-(4-(4,5-Dihydro-1H-imidazol-2-yl)phenoxy)propoxy)phenyl)benzofuran-5-yl)-4,5-dihydro-1H-imidazole dihydrochloride]
MIC80 (Aspergillus fumigatus; strain DUMC 168.95): 10 µg/mL
MIC (Aspergillus fumigatus; strain DUMC 168.95, read-out: Aspergillus. Fumigatus (DUMC 168.95) MIC100): > 100 µg/mL
IC50 (Plasmodium falciparum; Tables VI(a), VI(c)): 0.0432 µM
MFC (Candida albicans; strain A39): 10 µg/mL
MIC80 (Candida albicans; strain A39): 10 µg/mL
MIC (Candida albicans; strain A39, read-out: Candida albicans (A39) MIC100): 10 µg/mL
IC50 (in vitro): 10.3 µM
IC50 ([2]; Tables VI(a), VI(c)): 0.0606 µM
melting point: 262 to 263 °C
IC50 (Trypanosoma cruzi; Tables VI(a), VI(c)): 7.6 µM

CC(C)NC(=N)c1ccc(OCCCCOc2ccc(-c3cc4ccc(C(=N)NC(C)C)cc4o3)cc2)cc1.Cl.Cl [Compound 72, 2-(4-(4-(4-(N-Isopropylcarbamimidoyl)phenoxy)butoxy)phenyl)-N-isopropylbenzofuran-6-carboxamidine dihydrochloride]
IC50 (Plasmodium falciparum; Tables VI(a), VI(c)): 0.139 µM
IC50 (in vitro): 15.9 µM
IC50 [1, 4]: 4.52 ± 1.81 µM
IC50 [1, 5]: 4.52 ± 1.81 µM
IC50 ([2]; Tables VI(a), VI(c)): 1.75 µM
melting point: 280 to 283 °C
IC50 (Trypanosoma cruzi; Tables VI(a), VI(c)): 12.5 µM

CONC(=N)c1ccc2oc(CCCc3cc4cc(C(=N)NOC)ccc4o3)cc2c1 [Compound 188, 2-(3-(5-(N-Methoxycarbamimidoyl)benzofuran-2-yl)propyl)-N-methoxybenzofuran-5-carboxamidine]
IC50 (Plasmodium falciparum; Tables VI(a), VI(c)): > 1.7 µM
IC50 (in vitro): > 157 µM
IC50 [1, 4]: > 100 µM
IC50 ([2]; Tables VI(a), VI(c)): 8.37 µM
IC50 (Trypanosoma cruzi; Tables VI(a), VI(c)): > 157 µM

Cl.Cl.c1cc(OCCCCOc2ccc(C3=NCCN3)cc2)cc(-c2cc3ccc(C4=NCCN4)cc3o2)c1 [Compound 61, 2-(2-(3-(4-(4-(4,5-Dihydro-1H-imidazol-2-yl)phenoxy)butoxy)phenyl)benzofuran-6-yl)-4,5-dihydro-1H-imidazole dihydrochloride]
IC50 (Plasmodium falciparum; Tables VI(a), VI(c)): 0.0976 µM
IC50 (in vitro): 5.84 µM
IC50 [1, 4]: 7.38 ± 2.55 µM
IC50 [1, 5]: 7.38 ± 2.55 µM
IC50 ([2]; Tables VI(a), VI(c)): 2.86 µM
melting point: 198 to 200 °C
IC50 (Trypanosoma cruzi; Tables VI(a), VI(c)): 8.92 µM

CC(C)NC(=N)c1ccc(OCCCOc2cccc(-c3cc4ccc(C(=N)NC(C)C)cc4o3)c2)cc1.Cl.Cl [Compound 57, 2-(3-(3-(4-(N-Isopropylcarbamimidoyl)phenoxy)propoxy)phenyl)-N-isopropylbenzofuran-6-carboxamidine dihydrochloride]
IC50 (Plasmodium falciparum; Tables VI(a), VI(c)): 0.202 µM
IC50 (in vitro): 82.3 µM
IC50 [1, 4]: 10.6 ± 6.42 µM
IC50 [1, 5]: 10.6 ± 6.42 µM
IC50 ([2]; Tables VI(a), VI(c)): 0.483 µM
melting point: 213 to 217 °C
IC50 (Trypanosoma cruzi; Tables VI(a), VI(c)): 69.8 µM

CC(C)NC(=N)c1ccc(OCCCCCOc2cccc(-c3cc4ccc(C(=N)NC(C)C)cc4o3)c2)cc1.Cl.Cl [Compound 63, 2-(3-(5-(4-(N-Isopropylcarbamimidoyl)phenoxy)pentyloxy)phenyl)-N-isopropylbenzofuran-6-carboxamidine dihydrochloride]
IC50 (Plasmodium falciparum; Tables VI(a), VI(c)): 0.294 µM
IC50 (in vitro): 20.1 µM
IC50 [1, 4]: 8.92 ± 0.71 µM
IC50 [1, 5]: 8.92 ± 0.71 µM
IC50 ([2]; Tables VI(a), VI(c)): 0.911 µM
melting point: 253 to 255 °C
IC50 (Trypanosoma cruzi; Tables VI(a), VI(c)): 29.7 µM

N=C(NO)c1ccc2oc(CCCc3cc4cc(C(=N)NO)ccc4o3)cc2c1 [Compound 185, 2-(3-(5-(N-Hydroxycarbamimidoyl)benzofuran-2-yl)propyl)-N-hydroxybenzofuran-5-carboxamidine]
IC50 (Plasmodium falciparum; Tables VI(a), VI(c)): > 2 µM
IC50 (in vitro): 23.8 µM
IC50 [1, 4]: > 50 µM
IC50 ([2]; Tables VI(a), VI(c)): 4.79 µM
IC50 (Trypanosoma cruzi; Tables VI(a), VI(c)): 9.4 µM

c1cc(C2=NCCN2)cc(-c2cc3cc(C4=NCCN4)ccc3o2)c1 [Compound 168, 2-(3-(5-(4,5-dihydro-1H-imidazol-2-yl)benzofuran-2-yl)phenyl)-4,5-dihydro-1H-imidazole]
IC50 (Plasmodium falciparum): 0.0758 µM
MIC90 [3]: 10.8 µg/mL and 25.7 µM
IC50 (in vitro): 33.9 µM
IC50 [1, 5]: 23.7 ± 0.17 µM
IC50 ([1]; read-out: L. Donovani IC50): 23.7 ± 0.17 µM
IC50 [2]: 0.0776 µM
IC50 (Trypanosoma cruzi): 39.6 µM

N=C(NO)c1ccc2cc(CCCCCc3cc4ccc(C(=N)NO)cc4o3)oc2c1 [Compound 184, 2-(5-(6-(N-Hydroxycarbamimidoyl)benzofuran-2-yl)pentyl)-N-hydroxybenzofuran-6-carboxamidine]
IC50 (Plasmodium falciparum; Tables VI(a), VI(c)): 17.2 µM
IC50 (in vitro): 19.4 µM
IC50 [1, 4]: 22.2 ± 0.64 µM
IC50 ([2]; Tables VI(a), VI(c)): 2.2 µM
IC50 (Trypanosoma cruzi; Tables VI(a), VI(c)): 4.9 µM

N=C(NO)c1ccc2oc(CCCCc3cc4cc(C(=N)NO)ccc4o3)cc2c1 [Compound 186, 2-(4-(5-(N-Hydroxycarbamimidoyl)benzofuran-2-yl)butyl)-N-hydroxybenzofuran-5-carboxamidine]
IC50 (Plasmodium falciparum; Tables VI(a), VI(c)): > 2 µM
IC50 (in vitro): > 184 µM
IC50 [1, 4]: > 100 µM
IC50 ([2]; Tables VI(a), VI(c)): 4.87 µM
IC50 (Trypanosoma cruzi; Tables VI(a), VI(c)): 152 µM

Cl.Cl.c1cc(OCCCCCOc2ccc(C3=NCCN3)cc2)cc(-c2cc3ccc(C4=NCCN4)cc3o2)c1 [Compound 64, 2-(2-(3-(5-(4-(4,5-Dihydro-1H-imidazol-2-yl)phenoxy)pentyloxy)phenyl)benzofuran-6-yl) -4,5-dihydro-1H-imidazole dihydrochloride]
IC50 (Plasmodium falciparum; Tables VI(a), VI(c)): 0.0469 µM
IC50 (in vitro): 3.7 µM
IC50 [1, 4]: 16.5 ± 3.45 µM
IC50 [1, 5]: 16.5 ± 3.45 µM
IC50 ([2]; Tables VI(a), VI(c)): 0.442 µM
melting point: 188 to 190 °C
IC50 (Trypanosoma cruzi; Tables VI(a), VI(c)): 3.62 µM

CONC(=N)c1ccc2cc(CCCCCc3cc4ccc(C(=N)NOC)cc4o3)oc2c1 [Compound 187, 2-(5-(6-(N-Methoxycarbamimidoyl)benzofuran-2-yl)pentyl)-N-methoxybenzofuran-6-carboxamidine]
IC50 (Plasmodium falciparum; Tables VI(a), VI(c)): 9.76 µM
IC50 (in vitro): 34.6 µM
IC50 [1, 4]: > 50 µM
IC50 ([2]; Tables VI(a), VI(c)): 13.8 µM
IC50 (Trypanosoma cruzi; Tables VI(a), VI(c)): 38.4 µM

Cl.Cl.c1cc(C2=NCCN2)ccc1OCCCCCOc1ccc(-c2cc3ccc(C4=NCCN4)cc3o2)cc1 [Compound 76, 2-(2-(4-(5-(4-(4,5-Dihydro-1H-imidazol-2-yl)phenoxy)pentyloxy)phenyl)benzofuran-6-yl)-4,5-dihydro-1H-imidazole dihydrochloride]
IC50 (Plasmodium falciparum; Tables VI(a), VI(c)): 0.028 µM
IC50 (in vitro): 3.2 µM
IC50 [1, 4]: 10.4 ± 0.78 µM
IC50 [1, 5]: 10.4 ± 0.78 µM
IC50 ([2]; Tables VI(a), VI(c)): 0.262 µM
melting point: 212 to 215 °C
IC50 (Trypanosoma cruzi; Tables VI(a), VI(c)): 2.12 µM

CONC(=N)c1ccc(-c2cc3cc(C(=N)NOC)ccc3o2)cc1 [Compound 179, 2-(4-(N-Methoxycarbamimidoyl)phenyl)-N-methoxybenzofuran-5-carboxamidine]
IC50 (Plasmodium falciparum): 2.5 µM
IC50 (in vitro): > 219 µM
IC50 ([1]; read-out: L. Donovani IC50): > 100 µM
IC50 [2]: 75.4 µM
IC50 (Trypanosoma cruzi): > 219 µM

Cl.Cl.c1cc(OCCCOc2ccc(C3=NCCN3)cc2)cc(-c2cc3ccc(C4=NCCN4)cc3o2)c1 [Compound 58, 2-(2-(3-(3-(4-(4,5-Dihydro-1H-imidazol-2-yl)phenoxy)propoxy)phenyl)benzofuran-6-yl)-4,5-dihydro-1H-imidazole dihydrochloride]
IC50 (Plasmodium falciparum; Tables VI(a), VI(c)): 0.0952 µM
IC50 (in vitro): 10.1 µM
IC50 [1, 4]: 4.73 ± 1.71 µM
IC50 [1, 5]: 4.73 ± 1.71 µM
IC50 ([2]; Tables VI(a), VI(c)): 1.08 µM
melting point: 208 to 211 °C
IC50 (Trypanosoma cruzi; Tables VI(a), VI(c)): 7.32 µM

N=C(NO)c1ccc2oc(CCCCCc3cc4cc(C(=N)NO)ccc4o3)cc2c1 [Compound 192, 2-(5-(5-(N-Hydroxycarbamimidoyl)benzofuran-2-yl)pentyl)-N-hydroxybenzofuran-5-carboxamidine]
IC50 (Plasmodium falciparum; Tables VI(a), VI(c)): > 1.9 µM
IC50 (in vitro): 27 µM
IC50 [1, 4]: 14.3 ± 6.49 µM
IC50 ([2]; Tables VI(a), VI(c)): 5 µM
IC50 (Trypanosoma cruzi; Tables VI(a), VI(c)): 11.9 µM

Cl.Cl.c1cc(OCCCCCOc2ccc(C3=NCCN3)cc2)cc(-c2cc3cc(C4=NCCN4)ccc3o2)c1 [Compound 40, 2-(2-(3-(5-(4-(4,5-Dihydro-1H-imidazol-2-yl)phenoxy)pentyloxy)phenyl)benzofuran-5-yl)-4,5-dihydro-1H-imidazole dihydrochloride]
IC50 (Plasmodium falciparum; Tables VI(a), VI(c)): 0.099 µM
IC50 (in vitro): 2.62 µM
IC50 [1, 4]: 16.6 ± 6.2 µM
IC50 ([2]; Tables VI(a), VI(c)): 0.597 µM
melting point: 180 to 182 °C
IC50 (Trypanosoma cruzi; Tables VI(a), VI(c)): 7.88 µM

Cl.Cl.N=C(N)c1ccc(OCCCCCCOc2cccc(-c3cc4cc(C(=N)N)ccc4o3)c2)cc1 [Compound 41, 2-(3-(6-(4-Carbamimidoylphenoxy)hexyloxy)phenyl)benzofuran-5-carboxamidine dihydrochloride]
IC50 (Plasmodium falciparum; Tables VI(a), VI(c)): 0.43 µM
IC50 (in vitro): 3.12 µM
IC50 [1, 4]: 22.6 ± 0.23 µM
IC50 [1, 5]: 22.6 ± 0.23 µM
IC50 ([2]; Tables VI(a), VI(c)): 1.61 µM
melting point: 208 to 210 °C
